In ChEMBL document CHEMBL5325417, “Dual function of protein phosphatase 5 (PPP5C): An emerging therapeutic target for drug discovery” (Eur J Med Chem, 2023):
Numbering of substitutions follows the chain as printed. pEC50, pIC50, pKd: −log10 of the molar value. Starred links: 1 amine or outer side, 2 acyl side, 3 side chain; linkers in the order of their positions; H or OH if unused. Positions of bridges follow the written chain, without caps; N, C: chain ends. Non-standard residues stand in square brackets, D forms with d. Residues, ends and D or L forms follow the SMILES beside them. Adda = CO[C@@H](Cc1ccccc1)[C@@H](C)/C=C(C)/C=C/[C@H](N[*:1])[C@H](C)C(=O)[*:2]; dAsp(3S-Me) = C[C@H](C(=O)[*:3])[C@@H](N[*:1])C(=O)[*:2]; d(γGlu) = O=C(O)[C@@H](CCC(=O)[*:2])N[*:1]; NMeDha = C=C(NC)C(=O)O

Tests used:
[1] = target: T1, Serine/threonine-protein phosphatase 5 (Rattus norvegicus) (UniProt P53042); test: Activation of rat PPP5C (428 to 430 residues) phosphatase domain expressed in Escherichia coli BL21-codonplus (DE3)-RIL cells using para-nitrophenyl phosphate as substrate assessed as fold change in maximum efficacy at 10^5 nM; settings: filed as activator, dose 1.0 10^5nM
T1 sequence (whole entry): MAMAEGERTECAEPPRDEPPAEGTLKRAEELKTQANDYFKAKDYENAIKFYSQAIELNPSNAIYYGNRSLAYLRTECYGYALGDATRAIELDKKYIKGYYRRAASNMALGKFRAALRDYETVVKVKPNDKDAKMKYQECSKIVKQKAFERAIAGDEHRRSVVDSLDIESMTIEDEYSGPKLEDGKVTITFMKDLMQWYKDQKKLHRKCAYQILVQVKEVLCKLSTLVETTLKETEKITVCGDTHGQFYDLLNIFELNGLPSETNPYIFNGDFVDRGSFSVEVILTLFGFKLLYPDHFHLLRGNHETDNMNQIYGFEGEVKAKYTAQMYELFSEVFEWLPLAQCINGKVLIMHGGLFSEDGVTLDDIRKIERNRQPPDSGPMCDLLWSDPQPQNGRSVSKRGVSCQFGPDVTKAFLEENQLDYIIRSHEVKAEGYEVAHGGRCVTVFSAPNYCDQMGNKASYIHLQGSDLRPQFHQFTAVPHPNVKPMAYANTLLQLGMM

[2] = target: T2, Serine/threonine-protein phosphatase 5 (Rattus norvegicus, UniProt P53042); test: Binding affinity to rat PPP5C (428 to 430 residues) phosphatase domain expressed in Escherichia coli BL21-codonplus (DE3)-RIL cells using para-nitrophenyl phosphate as substrate assessed as dissociation constant at 10^5 nM
T2 sequence (P53042 whole entry): T1 sequence (whole entry)

[3] = target: T1, Serine/threonine-protein phosphatase 5 (Rattus norvegicus); test: Activation of rat PPP5C (428 to 430 residues) phosphatase domain expressed in Escherichia coli BL21-codonplus (DE3)-RIL cells using para-nitrophenyl phosphate as substrate assessed as fold increase at 10^5 nM; settings: filed as activator, dose 1.0 10^5nM
[4] = target: T3, Serine/threonine-protein phosphatase 5 (Homo sapiens, UniProt P53041); test: Activation of PPP5C (unknown origin) TPR domain
T3 sequence (P53041 whole entry): T1 sequence (whole entry) with E22D, T24A, N128H, S140N, R158K, T189S, D193E, C221S, V397I, Q419N

[5] = target: T3, Serine/threonine-protein phosphatase 5; test: Inhibition of PPP5C (unknown origin) phosphatase domain
[6] = Inhibition of bovine blood PP2A phosphatase domain expressed in Escherichia coli using DiFMUP as substrate; assay type: tissue-based, Bos taurus
[7] = Inhibition of PP1 (unknown origin) phosphatase domain; parameters: species or system Homo sapiens
[8] = target: T3, Serine/threonine-protein phosphatase 5; test: Inhibition of MBP fused recombinant human PPP5C phosphatase domain expressed in Escherichia coli using DiFMUP as substrate
[9] = target: T4, Serine/threonine-protein phosphatase 5 (Homo sapiens) (UniProt P53041); test: Activation of PPP5C (unknown origin) TPR domain assessed as fold change; settings: filed as activator
T4 sequence (whole entry): T1 sequence (whole entry) with E22D, T24A, N128H, S140N, R158K, T189S, D193E, C221S, V397I, Q419N

[10] = target: T4, Serine/threonine-protein phosphatase 5 (Homo sapiens); test: Activation of Histidine-tagged human PPP5C TPR domain assessed as fold change at 10^5 nM; settings: filed as activator, dose 1.0 10^5nM
[11] = target: T4, Serine/threonine-protein phosphatase 5 (Homo sapiens); test: Inhibition of N-terminally 6His-tagged full-length human PPP5C (1 to 499 residues) TPR domain expressed in Escherichia coli Rosetta gami2 (de3) pLysS cells using pNPP as substrate at 10^6 nM preincubated for 10 mins followed by substrate addition and measured for 60 mins relative to control; settings: dose 1.0 10^6nM, time 70.0 min
[12] = Inhibition of PP3 (unknown origin) phosphatase domain; parameters: species or system Homo sapiens
[13] = Inhibition of PP2A (unknown origin) phosphatase domain; parameters: species or system Homo sapiens
[14] = Inhibition of PP6 (unknown origin) phosphatase domain; parameters: species or system Homo sapiens
[15] = Inhibition of PP4 (unknown origin) phosphatase domain using phosphohistone as substrate; parameters: species or system Homo sapiens
[16] = target: T5, Serine/threonine-protein phosphatase with EF-hands 1 (Homo sapiens, UniProt O14829); test: Inhibition of PP7 (unknown origin) phosphatase domain
T5 sequence (O14829 whole entry): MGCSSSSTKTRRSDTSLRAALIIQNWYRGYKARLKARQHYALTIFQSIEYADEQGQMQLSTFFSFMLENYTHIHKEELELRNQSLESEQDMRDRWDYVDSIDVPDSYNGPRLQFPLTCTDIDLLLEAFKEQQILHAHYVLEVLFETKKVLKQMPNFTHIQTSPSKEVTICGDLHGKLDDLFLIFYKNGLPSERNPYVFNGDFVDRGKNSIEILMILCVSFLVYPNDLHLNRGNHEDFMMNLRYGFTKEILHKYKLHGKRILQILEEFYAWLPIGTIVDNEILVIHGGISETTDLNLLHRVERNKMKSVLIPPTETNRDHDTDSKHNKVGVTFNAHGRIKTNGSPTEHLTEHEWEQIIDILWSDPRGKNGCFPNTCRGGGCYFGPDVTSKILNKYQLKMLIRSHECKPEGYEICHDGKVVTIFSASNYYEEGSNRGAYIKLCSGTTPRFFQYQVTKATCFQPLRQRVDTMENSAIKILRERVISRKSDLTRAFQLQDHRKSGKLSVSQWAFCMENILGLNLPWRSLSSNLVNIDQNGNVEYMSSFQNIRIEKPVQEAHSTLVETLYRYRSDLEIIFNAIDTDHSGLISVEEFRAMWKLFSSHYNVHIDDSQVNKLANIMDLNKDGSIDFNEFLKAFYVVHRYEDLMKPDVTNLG

[17] = target: T6, Serine/threonine-protein phosphatase 4 catalytic subunit (Homo sapiens, UniProt P60510); test: Inhibition of PP4 (unknown origin) phosphatase domain
T6 sequence (P60510 whole entry): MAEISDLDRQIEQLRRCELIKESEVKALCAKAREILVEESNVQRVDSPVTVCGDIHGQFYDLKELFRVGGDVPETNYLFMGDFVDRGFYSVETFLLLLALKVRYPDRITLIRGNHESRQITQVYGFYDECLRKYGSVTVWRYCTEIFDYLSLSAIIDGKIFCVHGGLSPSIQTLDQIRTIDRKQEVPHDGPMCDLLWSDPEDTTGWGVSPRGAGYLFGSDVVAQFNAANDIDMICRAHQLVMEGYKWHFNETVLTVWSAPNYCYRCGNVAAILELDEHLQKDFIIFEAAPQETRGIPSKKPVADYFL

[18] = Inhibition of PP2A (unknown origin) phosphatase domain using phosphohistone as substrate; parameters: species or system Homo sapiens

Compound: COc1ccc(-c2nc(Cc3ccc(Cl)cc3)no2)cc1OC
- fold change (FC) [1]: 3.9
- pKd [2]: 5.11
- fold change (FC) [3]: 3.2

Compound: O=C(O)CCCCCCCCCCCC[C@H]1C=CCC1
- pEC50 [4]: 3.87

Compound: CCCCO[C@H]1C[C@@H]2O[C@H]1[C@@H](C(=O)O)[C@H]2C(=O)O
- pIC50 [5]: 6.15

Compound: CN1CCN(C(=O)[C@H]2[C@@H](C(=O)O)[C@@H]3CC[C@H]2O3)CC1
- pIC50 [6]: 6.40
- pIC50 [7]: 8.62
- pIC50 [8]: 5.74

Compound: C[C@H]1C[C@@H]2O[C@H]1[C@@H](C(=O)O)[C@H]2C(=O)O
- pIC50 [5]: 6.00

Compound: CCCCC/C=C\C/C=C\C/C=C\C/C=C\CCCC(=O)O
- fold change (FC) [9]: 1.5

Compound: Cc1ccc(C(=O)Nc2ccc(S(=O)(=O)O)c3cc(S(=O)(=O)O)cc(S(=O)(=O)O)c23)cc1NC(=O)c1cccc(NC(=O)Nc2cccc(C(=O)Nc3cc(C(=O)Nc4ccc(S(=O)(=O)O)c5cc(S(=O)(=O)O)cc(S(=O)(=O)O)c45)ccc3C)c2)c1
- fold change (FC) [10]: 4

Compound: Nc1ccc(-c2nc3ccc(-c4nc5ccc(N)cc5[nH]4)cc3[nH]2)cc1
- inhibition [11]: > 40%

Compound: C[C@@]12C(=O)OC(=O)[C@]1(C)[C@H]1CC[C@@H]2O1 [CANTHARIDIN]
- pIC50 [7]: 5.77
- pIC50 [12]: < 3.30
- pIC50 [13]: 6.80
- pIC50 [14]: 5.10
- pIC50 [15]: 7.30

Compound: CC(C)(COP(=O)(O)OP(=O)(O)OC[C@H]1O[C@@H](n2cnc3c(N)ncnc32)[C@H](O)[C@@H]1OP(=O)(O)O)[C@@H](O)C(=O)NCCC(=O)NCCS [COENZYME_A]
- pEC50 [4]: 6.00

Compound: O=C1OC(=O)C2C3CCC(O3)C12 (stereo not given) [DEMETHYL-CANTHARIDIN]
- pIC50 [5]: 6.00

Compound: C[C@@](O)(/C=C/[C@H]1CC=CC(=O)O1)[C@@H](C[C@@H](O)\C=C/C=C\C=C\CO)OP(=O)(O)O [FOSTRIECIN]
- pIC50 [5]: < 6.00
- pIC50 [16]: < 6.00
- pIC50 [17]: 8.52
- pIC50 [7]: < 4.00
- pIC50 [12]: < 4.00
- pIC50 [13]: 8.82
- pIC50 [14]: 8.00

Compound: C=C1C(=O)N[C@H](C)C(=O)N[C@@H](CC(C)C)C(=O)N[C@@H](C(=O)O)[C@H](C)C(=O)N[C@@H](CCCNC(=N)N)C(=O)N[C@@H](/C=C/C(C)=C/[C@H](C)[C@H](Cc2ccccc2)OC)[C@H](C)C(=O)N[C@@H](C(=O)O)CCC(=O)N1C [MICROCYSTIN-LR] (R[Adda][d(γGlu)][NMeDha][dA]L[dAsp(3S-Me)]-OH; lactam N-7)
- pIC50 [7]: 8.77
- pIC50 [12]: 6.70
- pIC50 [18]: 10.40
- pIC50 [15]: 9.82
